{"source": "patent US20260337176A1", "about": "“AUTOPHAGY REGULATOR AND USE THEREOF” (SHENZHEN INSTITUTES OF ADVANCED TECHNOLOGY, CHINESE ACADEMY …, priority 2023, published 2026)", "key": {"[1]": {"tested_on": "cancer cells HeLa and 4T1 and normal cells HEK293", "experiment": "Selectivity for tumor cells (red fluorescence intensity in cancer vs normal cells)", "type": "cell-based", "settings": "4T1 vs HEK293, 1 μM, 30 min; for fluorescence intensity, cancer cells vs normal cells, complete medium / selectivity for cancer cells: complete medium (serum-containing)", "description": "(§1) Cancer cells HeLa and 4T1 and normal cells HEK293 were cultured using a complete medium (DMEM medium containing 10% fetal bovine serum and 1% penicillin/streptomycin) in a saturated-humidity incubator at 37 °C and 5% CO2, and passaged once every 2 to 3 days.\n(§2) When the cells grew to the logarithmic phase, they were transferred to confocal dishes or 96-well plates: Cells fully grown in a T25 cell culture flask were first washed with PBS, and then digested with 1 mL of trypsin for 1 to 2 minutes (0.25% trypsin for HeLa and 4T1, and 0.025% trypsin for HEK293). After removal of trypsin, fresh medium was added, and the cells were pipetted uniformly and counted, whose density was controlled by the amount of medium added. (1) The cells were inoculated into a confocal glass-bottom culture dish, and was cultured in a 5% CO2 incubator.When the cells grew to a coverage of ~70% they were used for confocal imaging experiments. (2) The cells were inoculated into a low-attachment U-bottom 96-well plate, and when the diameter of the cell spheroids reached ~800 μm, the cell spheroids were used for antitumor evaluation.\nAfter three groups of cancer cells HeLa and 4T1 and normal cells HEK293 individually grown on confocal glass-bottom culture dishes prepared in Test example 1 were washed with PBS, one group was incubated in complete medium (serum-containing) with 1 μM of the compound synthesized in Example 1 in the dark for 30 min, and the second group was incubated in complete medium with 1 μM of (E)-4-(2-(5-methoxy-1H-indol-3-yl)vinyl)-1-n-octylquinolinium iodide in the dark for 30 min, and the third group was incubated in DMEM (serum-free)with 1 μM of the compound synthesized in Example 1 in the dark for 30 min. After PBS washing, all the cells were placed in DMEM, and differences in red fluorescence intensity from the three groups of tumor cells and normal cells were observed and recorded under a laser scanning confocal microscope (EX561 nm, EM600-700 nm)."}, "HeLa cells": {"tested_on": "HeLa cells", "experiment": "Verification of how compound enters cells (37 °C vs 4 °C)", "type": "cell-based", "settings": "2 μM, 30 min, complete medium; for way of entering cells: 37 °C vs 4 °C", "description": "as §1, §2\nAfter two groups of HeLa cells grown on confocal glass-bottom culture dishes prepared in Test example 1 were washed with PBS, one group was incubated at 37 °C in the dark for 30 min in complete medium with 2 μM of the compound synthesized in Example 1, and the other group was incubated at 4 °C for the same period in complete medium with 2 μM of compound synthesized in Example 1. After PBS washing, the incubated cells were placed in DMEM, and red fluorescence distribution in cells from the two groups was observed and recorded using a laser scanning confocal microscope (EX561 nm, EM600-700 nm).\nAfter two groups of HeLa cells grown on confocal glass-bottom culture dishes prepared in Test example 1 were washed with PBS, one group was incubated in complete medium with 2 μM of (E)-4-(2-(5-methoxy-1H-indol-3-yl)vinyl)-1-n-octylquinolinium iodide in the dark at 37 °C for 30 min, and the other group was incubated in complete medium solution with 2 μM (E)-4-(2-(5-methoxy-1H-indol-3-yl)vinyl)-1-n-octylquinolinium iodide in the dark at 4 °C for the same period. After PBS washing, the cells were placed in DMEM, and red fluorescence in cells from the two groups was observed and recorded using a laser scanning confocal microscope (EX561 nm, EM600-700 nm)."}, "HeLa cell spheroids": {"tested_on": "HeLa cell spheroids", "experiment": "Changes in growth of HeLa cell spheroids", "type": "cell-based", "settings": "10 μM, 24 h", "description": "as §1, §2\nAfter two groups of HEK293 cell spheroids and two groups of HeLa cell spheroids prepared in Test example 1 were photographed under a microscope, one group of HEK293 and HeLa cell spheroids was incubated in a complete medium containing 10 μM of the compound synthesized in Example 1 as an experimental administration group, and the other group of HEK293 and HeLa cell spheroids was incubated in a complete medium containing the same volume of DMSO as a blank control. After 24 h, photographs were taken again using the microscope to observe changes in morphology and size of the cell spheroids."}, "[2]": {"tested_on": "HeLa cells (fusion of mitochondria and lysosomes)", "experiment": "Fusion of mitochondria and lysosomes in HeLa cells (MitoTracker Green / LysoBrite NIR)", "type": "cell-based", "settings": "compound 10 μM in complete medium, ~5 h", "description": "as §1\nas §2, with “(2) The cells were inoculated into a low-attachment U-bottom 96-well plate, and when the diameter of the cell spheroids reached ~800 μm, the cell spheroids were used for antitumor evaluation.” left out\nAfter two groups of HeLa cells grown on confocal glass-bottom culture dishes prepared in Test example 1 were washed with PBS, both were incubated with 1 μM mitochondrial green fluorescent probe (MitoTracker Green) in the dark for 30 min, followed by 30 min incubation with 1 μM lysosomal deep-red probe (LysoBrite NIR). […] The fluorescence distribution of MitoTracker Green and LysoBrite NIR in cells from the two groups was recorded."}, "bovine serum albumin": {"target": "bovine serum albumin (Bos taurus, UniProt P02769)", "sequence (P02769 25-607)": "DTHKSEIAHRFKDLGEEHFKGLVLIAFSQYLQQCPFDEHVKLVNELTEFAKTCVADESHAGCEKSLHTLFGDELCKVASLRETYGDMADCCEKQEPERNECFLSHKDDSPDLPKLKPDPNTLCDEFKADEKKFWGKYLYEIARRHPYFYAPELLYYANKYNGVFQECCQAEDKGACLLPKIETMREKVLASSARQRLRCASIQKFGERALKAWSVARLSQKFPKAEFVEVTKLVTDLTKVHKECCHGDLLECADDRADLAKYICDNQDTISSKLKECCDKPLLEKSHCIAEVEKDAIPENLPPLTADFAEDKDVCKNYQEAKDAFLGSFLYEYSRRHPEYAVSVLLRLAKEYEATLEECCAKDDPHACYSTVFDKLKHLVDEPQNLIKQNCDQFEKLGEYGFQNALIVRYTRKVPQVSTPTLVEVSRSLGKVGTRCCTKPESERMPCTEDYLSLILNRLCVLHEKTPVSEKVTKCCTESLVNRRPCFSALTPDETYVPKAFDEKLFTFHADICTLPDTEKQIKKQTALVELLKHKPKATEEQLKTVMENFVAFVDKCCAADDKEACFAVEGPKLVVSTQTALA", "experiment": "Binding constant with albumin (fluorescence quenching, double-logarithmic fitting)", "description": "The compound synthesized in Example 1 was added at different concentrations (0 to 15 μM) to PBS containing bovine serum albumin, and then fluorescence spectra of bovine serum albumin were measured using a fluorescence spectrometer (280 nm EX)."}, "[3]": {"tested_on": "HeLa cells (mitochondria and lysosomes)", "experiment": "Localization observation in HeLa cells (colocalization with MitoTracker Green and LysoBrite NIR)", "type": "cell-based", "settings": "2 μM, 30 min, confocal colocalization", "description": "as §1\nas §2, with “evaluation. […]” for “evaluation.”"}, "[4]": {"tested_on": "HeLa cells (lysosomal pH)", "experiment": "Changes in lysosomal pH of HeLa cells (LysoSensor Green DND-189)", "type": "cell-based", "settings": "10 μM, 30 min, vs DMSO blank control", "description": "as §1\nas §2, with “(2) The cells were inoculated into a low-attachment U-bottom 96-well plate, and when the diameter of the cell spheroids reached ~800 μm, the cell spheroids were used for antitumor evaluation.” left out\nTwo groups of HeLa cells grown on confocal glass-bottom culture dishes prepared in Test example 1 were incubated with 2 μM lysosomal green fluorescent probe (LysoSensor Green DND-189) in the dark for 30 min in a CO2 incubator, and then washed with PBS. […] The changes in the fluorescence brightness of LysoSensor Green in cells from the two groups were recorded."}, "HeLa cells (autophagy)": {"tested_on": "HeLa cells (autophagy)", "experiment": "Imaging of autophagic vacuoles and autophagosomes in HeLa cells (Cell-Tracker Green CMFDA)", "type": "cell-based", "settings": "10 μM, 90 min", "description": "as §1, §2\nTwo groups of HeLa cells grown on confocal glass-bottom culture dishes prepared in Test example 1 were firstly washed with PBS. Then one group was incubated in the dark for 90 min in complete medium with 10 μM of the compound synthesized in Example 1, and the other group was incubated in complete medium with an equal amount of DMSO as a blank control sample. Subsequently, the cells were incubated in DMEM with 5 μM green live-cell tracking probe (Cell-Tracker Green CMFDA) for 30 min. After PBS washing, the cells were placed in DMEM and observed under a laser scanning confocal microscope. The fluorescence distribution of Cell-Tracker Green in cells from the two groups was recorded.\nAfter HeLa cells grown on confocal glass-bottom culture dish prepared in Test example 1 was washed with PBS, they were incubated in complete medium with 10 μM of the compound synthesized in Example 2 in the dark for 90 min, and then incubated in DMEM with 5 μM green live-cell tracking probe (Cell-Tracker Green CMFDA) in the dark for 30 min followed by PBS washing. The cells were placed in DMEM and observed under a laser scanning confocal microscope. The fluorescence distribution of Cell-Tracker Green in the cells was recorded."}, "[5]": {"tested_on": "HeLa cells (mitochondrial membrane potential)", "experiment": "Changes in mitochondrial membrane potential of HeLa cells (rhodamine 123)", "type": "cell-based", "settings": "10 μM, 30 min, vs DMSO blank control", "description": "as §1\nas §2, with “(2) The cells were inoculated into a low-attachment U-bottom 96-well plate, and when the diameter of the cell spheroids reached ~800 μm, the cell spheroids were used for antitumor evaluation.” left out\nTwo groups of HeLa cells grown on confocal glass-bottom culture dishes prepared in Test example 1 were both incubated with 5 μM rhodamine 123 in darkness in a CO2 incubator for 30 min and then washed with PBS. […] After PBS washing, the cells were observed under a laser scanning confocal microscope, and the changes of the fluorescence brightness from rhodamine 123 in the two groups of cells were recorded."}, "HEK293 cell spheroids": {"tested_on": "HEK293 cell spheroids", "experiment": "Changes in growth of HEK293 cell spheroids", "type": "cell-based", "settings": "10 μM, 24 h", "description": "as §1\nas §2, with “evaluation. […]” for “evaluation.”"}}}
{"molecule": "CCCCCCCC[n+]1ccc(/C=C/c2c[nH]c3ccc(OC)cc23)c2ccccc21.[I-]", "note": "[(E)-4-(2-(5-methoxy-1H-indol-3-yl)vinyl)-1-n-octylquinolinium iodide, reference compound]", "values": [{"measurement": "fluorescence intensity, cancer cells vs normal cells, complete medium", "setting": "[1]", "value": "no significant difference in fluorescence intensity between cancer cells and normal cells"}, {"measurement": "selectivity for cancer cells", "setting": "[1]", "value": "non-selective for cancer cells"}, {"measurement": "way of entering cells", "setting": "HeLa cells", "value": "enters cells mainly via free diffusion rather than active transport"}, {"measurement": "red fluorescence at 37 °C compared with 4 °C", "setting": "HeLa cells", "value": "no obvious difference in fluorescence intensity"}]}
{"molecule": "CCCCCCCCCCCC[n+]1ccc(/C=C/c2c[nH]c3ccc(OC)cc23)c2ccccc21.[I-]", "note": "[Example 1, (E)-4-(2-(5-methoxy-1H-indol-3-yl)vinyl)-1-n-dodecylquinolinium iodide]", "values": [{"measurement": "cell debris near HeLa cell spheroids", "setting": "HeLa cell spheroids", "value": "many cell debris appear near the cell spheroids"}, {"measurement": "growth of cancerous HeLa cell spheroids", "setting": "HeLa cell spheroids", "value": "significantly inhibits and disrupts the growth"}, {"measurement": "size of HeLa cell spheroids", "setting": "HeLa cell spheroids; vs blank control and before administration", "value": "much smaller than those in the blank control as well as than the cell spheroids before drug administration"}, {"measurement": "selective killing effect on cancer cells", "setting": "HeLa cell spheroids; HeLa vs HEK293 cell spheroids", "value": "significant selective killing effect on cancer cells"}, {"measurement": "fluorescence intensity, cancer cells vs normal cells, serum-free", "setting": "[1]; DMEM (serum-free)", "value": "almost no difference in fluorescence intensity between cancer cells and normal cells"}, {"measurement": "fluorescence intensity, cancer cells vs normal cells, complete medium", "setting": "[1]", "value": "the fluorescence intensity of cancer cells is significantly higher than the fluorescence intensity of normal cells"}, {"measurement": "selectivity for cancer cells", "setting": "[1]", "value": "high selectivity for cancer cells"}, {"measurement": "entry into cancer cells vs normal cells, serum-free", "setting": "[1]; serum-free medium", "value": "no significant difference"}, {"measurement": "fusion of mitochondria and lysosomes / autophagic flux", "setting": "[2]", "value": "can prevent fusion of cellular mitochondria and lysosomes and block autophagic flux"}, {"measurement": "overlap of mitochondrial and lysosomal fluorescence", "setting": "[2]", "value": "almost no overlap"}, {"measurement": "fluorescence peak of bovine serum albumin", "setting": "bovine serum albumin; PBS, compound 0 to 15 μM, 280 nm EX", "value": "gradually decreases"}, {"measurement": "affinity for albumin", "setting": "bovine serum albumin; bovine serum albumin in PBS", "value": "high affinity for albumin"}, {"measurement": "binding constant with albumin", "setting": "bovine serum albumin; bovine serum albumin in PBS, compound 0 to 15 μM, 280 nm EX, double-logarithmic fit", "value": "1.35×10^8"}, {"measurement": "distribution of compound fluorescence in organelles", "setting": "[3]", "value": "distributed in the two organelles, mitochondria and lysosomes"}, {"measurement": "fluorescence of LysoSensor Green", "setting": "[4]", "value": "greatly weakened"}, {"measurement": "lysosomal pH", "setting": "[4]", "value": "increases significantly"}, {"measurement": "way of entering cells", "setting": "HeLa cells", "value": "enters cells mainly via active transport"}, {"measurement": "red fluorescence at 37 °C compared with 4 °C", "setting": "HeLa cells", "value": "significantly stronger"}, {"measurement": "autophagy activation / modulation", "setting": "HeLa cells (autophagy)", "value": "can activate autophagy"}, {"measurement": "generation of vacuoles (autophagic vacuoles/vesicles and autophagosomes) in the cytoplasm", "setting": "HeLa cells (autophagy)", "value": "a large number of vacuoles (autophagic vacuoles and autophagosomes) are generated"}, {"measurement": "fluorescence of rhodamine 123", "setting": "[5]", "value": "greatly weakened"}, {"measurement": "mitochondrial membrane potential", "setting": "[5]", "value": "decreases significantly"}, {"measurement": "growth inhibition of normal HEK293 cell spheroids", "setting": "HEK293 cell spheroids", "value": "does not cause significant growth inhibition"}, {"measurement": "size and shape of HEK293 cell spheroids", "setting": "HEK293 cell spheroids; vs blank control", "value": "do not change significantly compared with the blank control"}]}
{"molecule": "CCCCCCCCCCCC[n+]1ccc(/C=C/c2c[nH]c3ccccc23)c2ccccc21.[I-]", "note": "[Example 2, (E)-4-(2-(1H-indol-3-yl)vinyl)-1-n-dodecylquinolinium iodide]", "values": [{"measurement": "distribution of compound fluorescence in organelles", "setting": "[3]", "value": "distributed in the two organelles, mitochondria and lysosomes"}, {"measurement": "autophagy activation / modulation", "setting": "HeLa cells (autophagy)", "value": "autophagy-modulating activity"}, {"measurement": "generation of vacuoles (autophagic vacuoles/vesicles and autophagosomes) in the cytoplasm", "setting": "HeLa cells (autophagy)", "value": "a large number of vacuoles (autophagic vesicles and autophagosomes) are generated"}]}
